Source: patent US20220280476A1, “KCNT1 INHIBITORS AND METHODS OF USE” (Praxis Precision Medicines, Inc., priority 2019, published 2022)

Target: T1, KCNT1 (KNa1.1, Slack) (Homo sapiens, UniProt Q5JUK3)
T1 construct: expressed in transfected cells; host or cells: HEK-TREX (tetracycline-inducible HEK cell line)
T1 sequence (Q5JUK3 1-1230): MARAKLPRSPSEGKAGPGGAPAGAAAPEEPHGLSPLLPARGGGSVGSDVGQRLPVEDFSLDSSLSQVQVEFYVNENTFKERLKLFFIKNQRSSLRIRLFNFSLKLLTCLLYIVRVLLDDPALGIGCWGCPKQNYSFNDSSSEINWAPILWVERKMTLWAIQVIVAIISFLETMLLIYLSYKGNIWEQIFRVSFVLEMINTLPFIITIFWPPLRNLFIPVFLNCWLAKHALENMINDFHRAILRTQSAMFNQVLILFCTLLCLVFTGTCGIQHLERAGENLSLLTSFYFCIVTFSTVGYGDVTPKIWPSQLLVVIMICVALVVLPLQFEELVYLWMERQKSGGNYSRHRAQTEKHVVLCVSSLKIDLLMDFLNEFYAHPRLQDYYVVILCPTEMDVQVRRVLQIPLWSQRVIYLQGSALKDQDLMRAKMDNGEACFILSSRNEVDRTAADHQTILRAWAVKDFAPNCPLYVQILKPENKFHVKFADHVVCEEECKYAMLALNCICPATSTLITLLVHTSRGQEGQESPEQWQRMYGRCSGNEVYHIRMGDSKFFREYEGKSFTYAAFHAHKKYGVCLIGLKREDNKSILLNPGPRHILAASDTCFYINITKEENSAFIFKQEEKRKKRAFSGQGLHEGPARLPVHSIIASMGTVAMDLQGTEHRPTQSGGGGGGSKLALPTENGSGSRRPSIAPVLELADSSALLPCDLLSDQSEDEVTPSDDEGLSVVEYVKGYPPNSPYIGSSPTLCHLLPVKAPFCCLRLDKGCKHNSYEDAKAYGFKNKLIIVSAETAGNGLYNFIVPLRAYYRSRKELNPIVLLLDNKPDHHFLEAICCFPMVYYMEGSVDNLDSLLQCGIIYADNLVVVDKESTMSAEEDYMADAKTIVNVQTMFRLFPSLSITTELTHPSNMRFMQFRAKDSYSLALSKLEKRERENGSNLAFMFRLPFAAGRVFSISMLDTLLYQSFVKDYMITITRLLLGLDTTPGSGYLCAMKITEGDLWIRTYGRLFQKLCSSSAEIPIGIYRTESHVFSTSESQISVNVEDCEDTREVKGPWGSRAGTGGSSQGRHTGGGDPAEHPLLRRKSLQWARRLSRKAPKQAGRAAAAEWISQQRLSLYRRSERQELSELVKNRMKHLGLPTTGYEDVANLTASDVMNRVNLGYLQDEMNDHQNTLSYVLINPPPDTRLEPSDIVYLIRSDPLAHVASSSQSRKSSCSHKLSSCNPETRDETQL
Experiment: KCNT1-WT-Basal patch clamp assay (SyncroPatch 384PE, HEK-TREX inducible cell line)
Assay type: cell-based
Conditions: tetracycline inducible HEK-TREX cells; perforated patch; holding -80 mV, 100 ms step to 0 mV; room temperature; read-out: KCNT1 WB IC50
Method: KCNT1-WT-Basal—Patch Clamp Assay
Inhibition of KCNT1 (KNa1.1, Slack) was evaluated using a tetracycline inducible cell line (HEK-TREX). Currents were recorded using the SyncroPatch 384PE automated, patch clamp system. Pulse generation and data collection were performed with PatchController384 V1.3.0 and DataController384 V1.2.1 (Nanion Technologies). The access resistance and apparent membrane capacitance were estimated using built-in protocols. Current were recorded in perforated patch mode (10 μM escin) from a population of cells. The cells were lifted, triturated, and resuspended at 800,000 cells/ml. The cells were allowed to recover in the cell hotel prior to experimentation. Currents were recorded at room temperature. The external solution contained the following (in mM): NaCl 105, NMDG 40, KCl 4, MgCl2 1, CaCl2 5 and HEPES 10 (pH=7.4, Osmolarity ˜300 mOsm). The extracellular solution was used as the wash, reference and compound delivery solution. The internal solution contained the following (in mM): NaCl 70, KF 70, KCl 10, EGTA 5, HEPES 5 and Escin 0.01 (pH=7.2, Osmolarity ˜295 mOsm). Escin is made at a 5 mM stock in water, aliquoted, and stored at −20° C. The compound plate was created at 2× concentrated in the extracellular solution. The compound was diluted to 1:2 when added to the recording well. The amount of DMSO in the extracellular solution was held constant at the level used for the highest tested concentration. A holding potential of −80 mV with a 100 ms step to 0 mV was used. Mean current was measured during the step to 0 mV. […] The average mean current from 3 sweeps was calculated and the % inhibition of each compound was calculated. The % Inhibition as a function of the compound concentration was fit with a Hill equation to derive IC50, slope, min and max parameters. If KCNT1 inhibition was less than 50% at the highest tested concentration or if an IC50 could not be calculated, then a percent inhibition was reported in place of the IC50.

SMILES	IC50
NC(=O)c1ccc(C(=O)N[C@H]2CCCc3cc(Cl)ccc32)s1 (single isomer, unassigned) [Compound I-30]	≥ 20000 nM
Cc1cc(S(N)(=O)=O)oc1C(=O)N[C@@H]1CCc2cc(Cl)ccc21 [Compound I-12]	≥ 20000 nM
CNS(=O)(=O)c1ccc(C(=O)N[C@H]2CCCc3cc(Cl)ccc32)s1 (single isomer, unassigned) [Compound I-22]	≤ 1000 nM
COCc1ccc(C(=O)N[C@@H]2CCc3cc(Cl)ccc32)s1 [Compound I-36]	≤ 1000 nM
CO[C@H]1CCN(S(=O)(=O)c2ccc(C(=O)N[C@@H]3CCc4cc(Cl)ccc43)s2)C1 [Compound I-43]	≤ 1000 nM
CN(C)Cc1ccc(C(=O)N[C@@H]2CCc3cc(Cl)ccc32)s1 [Compound I-38]	1000 to 20000 nM
NC(=O)c1ccc(C(=O)N[C@@H]2CCCc3cc(Cl)ccc32)s1 (single isomer, unassigned) [Compound I-31]	≤ 1000 nM
Cc1cc(S(N)(=O)=O)sc1C(=O)N[C@@H]1CCc2cc(Cl)ccc21 [Compound I-10]	1000 to 20000 nM
CC(=O)N(C)Cc1ccc(C(=O)N[C@@H]2CCc3cc(Cl)ccc32)s1 [Compound I-39]	≤ 1000 nM
CC(=O)NCc1ccc(C(=O)N[C@@H]2CCc3cc(Cl)ccc32)s1 [Compound I-44]	≤ 1000 nM
NS(=O)(=O)c1cc(C(=O)N[C@@H]2CCc3cc(Cl)ccc32)cs1 [Compound I-6]	≤ 1000 nM
NS(=O)(=O)c1ccc(C(=O)N[C@@H]2CCCc3cc(Cl)ccc32)s1 (single isomer, unassigned) [Compound I-33]	≥ 20000 nM
CS(=O)(=O)c1ccc(C(=O)N[C@@H]2CCCc3cc(Cl)ccc32)s1 (single isomer, unassigned) [Compound I-25]	≥ 20000 nM
O=C(N[C@@H]1CCc2cc(Cl)ccc21)c1ccc(S(=O)(=O)N2CCCC2)s1 [Compound I-17]	≤ 1000 nM
NC(=O)c1ccc(C(=O)N[C@@H]2CCc3cc(Cl)ccc32)s1 [Compound I-20]	≤ 1000 nM
CN(C)C(=O)c1ccc(C(=O)N[C@@H]2CCc3cc(Cl)ccc32)s1 [Compound I-29]	≤ 1000 nM
NS(=O)(=O)c1ccc(C(=O)N[C@H]2CCCc3cc(Cl)ccc32)s1 (single isomer, unassigned) [Compound I-32]	≤ 1000 nM
Cn1cc(S(N)(=O)=O)cc1C(=O)N[C@@H]1CCc2cc(Cl)ccc21 [Compound I-7]	≥ 20000 nM
O=C(N[C@@H]1CCc2cc(Cl)ccc21)c1cnc(Cl)s1 [Compound I-37]	≤ 1000 nM
Cc1sc(C(=O)N[C@@H]2CCc3cc(Cl)ccc32)cc1S(N)(=O)=O [Compound I-8]	1000 to 20000 nM

Other lines, results leading:

IC50	SMILES
≤ 1000 nM	COc1cccc(C(=O)N[C@@H]2CCc3cc(Cl)ccc32)c1O [Compound III-14]
1000 to 20000 nM	CS(=O)(=O)N(CC(F)(F)F)c1ccc(C(=O)N[C@@H]2CCc3cc(Cl)ccc32)cc1 [Compound II-45]
1000 to 20000 nM	CN(C)S(=O)(=O)Nc1ccc(C(=O)N[C@@H]2CCc3cc(Cl)ccc32)cc1 [Compound II-34]
1000 to 20000 nM	NS(=O)(=O)Nc1ccc(C(=O)N[C@@H]2CCc3cc(Cl)ccc32)cc1 [Compound II-37]
≥ 20000 nM	O=C(N[C@@H]1CCc2cc(Cl)ccc21)c1ccc(NS(=O)(=O)C(F)(F)F)cc1 [Compound II-12]
≤ 1000 nM	O=C(N[C@@H]1CCc2cc(Cl)ccc21)c1ccc(S(=O)(=O)C2CC2)cc1 [Compound II-39]
1000 to 20000 nM	COc1cccc(O)c1C(=O)N[C@@H]1CCc2cc(Cl)ccc21 [Compound III-13]
≤ 1000 nM	CCS(=O)(=O)Nc1ccc(C(=O)N[C@@H]2CCc3cc(Cl)ccc32)cc1 [Compound II-10, N-[(1R)-5-chloroindan-1-yl]-4-(ethylsulfonylamino)benzamide]
≤ 1000 nM	CN(C)S(=O)(=O)c1ccc(C(=O)N[C@@H]2CCc3cc(Cl)ccc32)cc1 [Compound II-28]
1000 to 20000 nM	CN(c1ccc(C(=O)N[C@H]2CCc3cc(Cl)ccc32)cc1)S(=O)(=O)C1CC1 [Compound II-20]
≤ 1000 nM	O=C(N[C@@H]1CCc2cc(Cl)ccc21)c1ccc(S(=O)(=O)C(F)(F)F)cc1 [Compound II-38]
1000 to 20000 nM	CN(C)C(=O)c1ccc(C(=O)N[C@@H]2CCc3cc(Cl)ccc32)cc1 [Compound II-23]
≤ 1000 nM	O=C(N[C@@H]1CCc2cc(Cl)ccc21)c1cc(F)ccc1O [Compound III-6]
≥ 20000 nM	CN(c1ccc(C(=O)NC2CCc3cc(Cl)ccc32)cc1)S(C)(=O)=O (single isomer, unassigned) [Compound II-1, N-(5-chloroindan-1-yl)-4-[methyl(methylsulfonyl)amino]benzamide]
> 20000 nM	COc1ccc(C(=O)NC2CCc3cc(Cl)ccc32)c(O)c1 (single isomer, unassigned) [Compound III-1, N-(5-chloroindan-1-yl)-2-hydroxy-4-methoxy-benzamide]
≥ 20000 nM	Cc1cc(S(C)(=O)=O)ccc1C(=O)N[C@@H]1CCc2cc(Cl)ccc21 [Compound II-33]
1000 to 20000 nM	CCS(=O)(=O)N(C)c1ccc(C(=O)N[C@H]2CCc3cc(Cl)ccc32)cc1 [Compound II-19]
1000 to 20000 nM	CS(=O)(=O)N(CCO)c1ccc(C(=O)N[C@@H]2CCc3cc(Cl)ccc32)cc1 [Compound II-47]
≤ 1000 nM	Cc1cccc(C(=O)N[C@@H]2CCc3cc(Cl)ccc32)c1O [Compound III-15]
≤ 1000 nM	CS(=O)(=O)c1ccc(C(=O)N[C@@H]2CCc3cc(Cl)ccc32)cc1 [Compound II-22]
≤ 1000 nM	CCS(=O)(=O)N(C)c1ccc(C(=O)N[C@@H]2CCc3cc(Cl)ccc32)cc1 [Compound II-13]
1000 to 20000 nM	CS(=O)(=O)N(c1ccc(C(=O)N[C@@H]2CCc3cc(Cl)ccc32)cc1)C1COC1 [Compound II-50]
≤ 1000 nM	CS(=O)(=O)Nc1ccc(C(=O)N[C@@H]2CCc3cc(Cl)ccc32)c(O)c1 [Compound III-5]
≥ 20000 nM	Nc1ccc(C(=O)N[C@H]2CCc3cc(Cl)ccc32)cc1 (single isomer, unassigned) [Compound II-16]
≤ 1000 nM	CNS(=O)(=O)Nc1ccc(C(=O)N[C@@H]2CCc3cc(Cl)ccc32)cc1 [Compound II-32]
> 20000 nM	O=C(N[C@H]1CCc2cc(Cl)ccc21)c1ccc(NS(=O)(=O)C2CC2)cc1 [Compound II-18, N-[(1S)-5-chloroindan-1-yl]-4-(cyclopropylsulfonylamino)benzamide]
≥ 20000 nM	Cc1cccc(O)c1C(=O)N[C@@H]1CCc2cc(Cl)ccc21 [Compound III-17]
> 20000 nM	CS(=O)(=O)Nc1ccc(C(=O)NC2CCc3cc(F)ccc32)cc1 (single isomer, unassigned) [Compound II-59, N-[5-fluoroindan-1-yl]-4-(methanesulfonamido)benzamide]
